From EPA's ToxValDB 9.5 (doi:10.2903/j.efsa.2017.4988) come the findings set out here.

The subject of one data set is Rattus norvegicus. The note with it: for LD50: acute, mortality.
The subject of another data set is Anas platyrhynchos. As to conditions: acute; oral; unspecified; mortality.
The subject of another data set is Anomia sp. The note with it: acute; duration: 96 hours; mortality.
The subject of the next data set is Apis mellifera. As to conditions: acute, mortality.
Another data set concerns Canidae. The note with it: oral, Dog Other.
Another data set relates to Cyprinodon variegatus. As to conditions: acute; duration: 96 hours; mortality.
For another data set, the system named is Daphnia magna. The note with it: chronic/long-term; duration: 21 days.
A further data set relates to Gammaridae. The note with it: chronic/long-term; duration: 28 days.
The next data set concerns Hypoaspis aculeifer. The note with it: chronic/long-term; duration: 14 days; reproduction.
Another data set concerns Oncorhynchus mykiss. The note with it: chronic/long-term; duration: 89 days; mortality.
In a further data set the test system is Aphidius rhopalosiphi. Nature of the data set: LR50; higher = less toxic. As to conditions: not reported; mortality.

≈ marks a conversion by molar mass, not a printed value.

The term NOAEL denotes the highest tested level that showed no adverse finding.

In the data set on Rattus norvegicus, `CCOc1cc(C(C)(C)C)ccc1C(N)COC(=O)c1c(F)cccc1F` (stereo not given) yielded an LD50 of more than 5000 mg/kg.

With `CCOc1cc(C(C)(C)C)ccc1C1COC(c2c(F)cccc2F)=N1` (stereo not given) [Etoxazole], the LD50 in the data set with Anas platyrhynchos is more than 2000 mg/kg; with Apis mellifera (dermal) it was more than 200 µg/piece; with Apis mellifera (oral, unspecified), more than 200 µg/piece; in the data set with Rattus norvegicus (oral), more than 5000 mg/kg. The LC50 is 4.3 ng/mL (≈ 0.012 µM) in the data set on Anomia sp.; 1270 mg/kg-day in the data set on Colinus virginianus (acute, oral, diet, mortality); more than 160 ng/mL in the data set on Cyprinodon variegatus; more than 1000 mg/kg with Tagia sp. (acute, duration: 14 days, mortality). The NOAEL in the data set on Canidae (chronic, duration: 1 years) was 5 mg/kg-day; in the data set on Canidae (subchronic, duration: 90 days), 5 mg/kg-day; in the data set with Rattus norvegicus (chronic, duration: 2 years), 4 mg/kg-day; in the data set with Rattus norvegicus (reproduction developmental, organ weight), 24.5 mg/kg-day. For the same molecule, the NOEC with Colinus virginianus (chronic) was determined as 28.6 mg/kg-day; in the data set on Daphnia magna, 0.00013 mg/L; in the data set with Gammaridae, 0.86 mg/kg; with Hypoaspis aculeifer it was 0.2 mg/kg; with Oncorhynchus mykiss, 0.015 mg/L; with Tagia sp. (chronic/long-term, duration: 56 days, reproduction) it was 5 mg/kg. In the data set on Aphidius rhopalosiphi, the LR50 was more than 55 g/ha.
